Experimental data reported in patent publication US7479506B2, “Agent or method for treating severe aphasia in cerebrovascular accident chronic stage” (priority 2003, dated 2009).

What was measured:
[1] = tested on: aphasia after cerebrovascular accidents; conditions: acute phase after cerebrovascular accidents, combination use of speech therapy; cited from earlier work
[2] = 60 g/day for gait disturbance of cerebellar degeneration; Movement Disorder, 2003, 18, pp. 457-459; cited from earlier work
Acute toxicity = conditions: in vivo
Text: Acute toxicity of the compound represented by formula (I) was examined and it has been confirmed that this is a compound having high safety.

NC(=O)CN1CCCC1=O [piracetam, 2-oxo-1-pyrrolidineacetamide]
therapeutic effect on aphasia [1]: therapeutic effect of piracetam is found
safety [2]: no problem on its safety
acute toxicity (Acute toxicity): high safety
